Measured values reported in ChEMBL document CHEMBL1137480, “Synthesis and structure-activity relationship of 7-(substituted)-aminomethyl-4-quinolone-3-carboxylic acid derivatives” (2007).
≈ marks a conversion by molar mass, not a printed value.

test system: Streptococcus pneumoniae; test: Antibacterial activity against Streptococcus pneumoniae 31002 after 24 hrs by agar dilution method; type: functional

Compound | MIC
C[C@H]1COc2c(CN3CCCCC3)c(F)cc3c(=O)c(C(=O)O)cn1c23 | 1.56 µg/mL (≈ 4.33 µM)
C[C@H]1COc2c(CN3CCNCC3)c(F)cc3c(=O)c(C(=O)O)cn1c23 | > 6.25 µg/mL
C[C@H]1COc2c(CN3CCN(C)CC3)c(F)cc3c(=O)c(C(=O)O)cn1c23 | 1.56 µg/mL (≈ 4.16 µM)
C[C@H]1COc2c(CNc3ccccc3)c(F)cc3c(=O)c(C(=O)O)cn1c23 | 0.098 µg/mL (≈ 0.266 µM)
Cc1ccc(NCc2c(F)cc3c(=O)c(C(=O)O)cn4c3c2OC[C@@H]4C)cc1 | 0.098 µg/mL (≈ 0.256 µM)

More lines, now with the values ahead:

MIC | Compound
≤ 0.049 µg/mL | C[C@H]1COc2c(CNc3ccc(Cl)cc3)c(F)cc3c(=O)c(C(=O)O)cn1c23
0.195 µg/mL (≈ 0.484 µM) | C[C@H]1COc2c(CNc3cccc(Cl)c3)c(F)cc3c(=O)c(C(=O)O)cn1c23
0.049 µg/mL (≈ 0.127 µM) | C[C@H]1COc2c(CNc3ccc(F)cc3)c(F)cc3c(=O)c(C(=O)O)cn1c23
≤ 0.049 µg/mL | C[C@H]1COc2c(CNc3ccc(F)c(Cl)c3)c(F)cc3c(=O)c(C(=O)O)cn1c23

test system: Shigella boydii; test: Antibacterial activity against Shigella boydii 51313 after 24 hrs by agar dilution method; type: functional

Compound | MIC
C[C@H]1COc2c(CN3CCCCC3)c(F)cc3c(=O)c(C(=O)O)cn1c23 | 0.78 µg/mL (≈ 2.16 µM)
C[C@H]1COc2c(CN3CCNCC3)c(F)cc3c(=O)c(C(=O)O)cn1c23 | > 6.25 µg/mL
C[C@H]1COc2c(CN3CCN(C)CC3)c(F)cc3c(=O)c(C(=O)O)cn1c23 | 1.56 µg/mL (≈ 4.16 µM)
C[C@H]1COc2c(CNc3ccccc3)c(F)cc3c(=O)c(C(=O)O)cn1c23 | 0.39 µg/mL (≈ 1.06 µM)
Cc1ccc(NCc2c(F)cc3c(=O)c(C(=O)O)cn4c3c2OC[C@@H]4C)cc1 | 0.78 µg/mL (≈ 2.04 µM)

The next lines start with the values.

MIC | Compound
0.195 µg/mL (≈ 0.484 µM) | C[C@H]1COc2c(CNc3ccc(Cl)cc3)c(F)cc3c(=O)c(C(=O)O)cn1c23
1.56 µg/mL (≈ 3.87 µM) | C[C@H]1COc2c(CNc3cccc(Cl)c3)c(F)cc3c(=O)c(C(=O)O)cn1c23
0.78 µg/mL (≈ 2.02 µM) | C[C@H]1COc2c(CNc3ccc(F)cc3)c(F)cc3c(=O)c(C(=O)O)cn1c23
0.195 µg/mL (≈ 0.463 µM) | C[C@H]1COc2c(CNc3ccc(F)c(Cl)c3)c(F)cc3c(=O)c(C(=O)O)cn1c23

test system: Staphylococcus epidermidis; test: Antibacterial activity against Staphylococcus epidermidis 26069 after 24 hrs by agar dilution method; type: functional

Compound | MIC
C[C@H]1COc2c(CN3CCCCC3)c(F)cc3c(=O)c(C(=O)O)cn1c23 | > 6.25 µg/mL
C[C@H]1COc2c(CN3CCNCC3)c(F)cc3c(=O)c(C(=O)O)cn1c23 | > 6.25 µg/mL
C[C@H]1COc2c(CN3CCN(C)CC3)c(F)cc3c(=O)c(C(=O)O)cn1c23 | > 6.25 µg/mL
C[C@H]1COc2c(CNc3ccccc3)c(F)cc3c(=O)c(C(=O)O)cn1c23 | 1.56 µg/mL (≈ 4.23 µM)
Cc1ccc(NCc2c(F)cc3c(=O)c(C(=O)O)cn4c3c2OC[C@@H]4C)cc1 | 3.13 µg/mL (≈ 8.19 µM)

Results, then the molecule that gave them:

MIC | Compound
0.098 µg/mL (≈ 0.243 µM) | C[C@H]1COc2c(CNc3ccc(Cl)cc3)c(F)cc3c(=O)c(C(=O)O)cn1c23
3.13 µg/mL (≈ 7.77 µM) | C[C@H]1COc2c(CNc3cccc(Cl)c3)c(F)cc3c(=O)c(C(=O)O)cn1c23
0.78 µg/mL (≈ 2.02 µM) | C[C@H]1COc2c(CNc3ccc(F)cc3)c(F)cc3c(=O)c(C(=O)O)cn1c23
0.195 µg/mL (≈ 0.463 µM) | C[C@H]1COc2c(CNc3ccc(F)c(Cl)c3)c(F)cc3c(=O)c(C(=O)O)cn1c23

test system: Salmonella; test: Antibacterial activity against […] 48107 after 24 hrs by agar dilution method; type: functional

Compound | MIC
C[C@H]1COc2c(CN3CCCCC3)c(F)cc3c(=O)c(C(=O)O)cn1c23 | 0.39 µg/mL (≈ 1.08 µM)
C[C@H]1COc2c(CN3CCNCC3)c(F)cc3c(=O)c(C(=O)O)cn1c23 | > 6.25 µg/mL
C[C@H]1COc2c(CN3CCN(C)CC3)c(F)cc3c(=O)c(C(=O)O)cn1c23 | 1.56 µg/mL (≈ 4.16 µM)
C[C@H]1COc2c(CNc3ccccc3)c(F)cc3c(=O)c(C(=O)O)cn1c23 | 0.78 µg/mL (≈ 2.12 µM)
Cc1ccc(NCc2c(F)cc3c(=O)c(C(=O)O)cn4c3c2OC[C@@H]4C)cc1 | 1.56 µg/mL (≈ 4.08 µM)

The next lines start with the values.

MIC | Compound
0.098 µg/mL (≈ 0.243 µM) | C[C@H]1COc2c(CNc3ccc(Cl)cc3)c(F)cc3c(=O)c(C(=O)O)cn1c23
6.25 µg/mL (≈ 15.5 µM) | C[C@H]1COc2c(CNc3cccc(Cl)c3)c(F)cc3c(=O)c(C(=O)O)cn1c23
0.78 µg/mL (≈ 2.02 µM) | C[C@H]1COc2c(CNc3ccc(F)cc3)c(F)cc3c(=O)c(C(=O)O)cn1c23
0.39 µg/mL (≈ 0.927 µM) | C[C@H]1COc2c(CNc3ccc(F)c(Cl)c3)c(F)cc3c(=O)c(C(=O)O)cn1c23

test system: Klebsiella pneumoniae; test: Antibacterial activity against Klebsiella pneumoniae 46101 after 24 hrs by agar dilution method; type: functional

Compound | MIC
C[C@H]1COc2c(CN3CCCCC3)c(F)cc3c(=O)c(C(=O)O)cn1c23 | 0.195 µg/mL (≈ 0.541 µM)
C[C@H]1COc2c(CN3CCNCC3)c(F)cc3c(=O)c(C(=O)O)cn1c23 | 3.13 µg/mL (≈ 8.66 µM)
C[C@H]1COc2c(CN3CCN(C)CC3)c(F)cc3c(=O)c(C(=O)O)cn1c23 | 0.78 µg/mL (≈ 2.08 µM)
C[C@H]1COc2c(CNc3ccccc3)c(F)cc3c(=O)c(C(=O)O)cn1c23 | 0.78 µg/mL (≈ 2.12 µM)
Cc1ccc(NCc2c(F)cc3c(=O)c(C(=O)O)cn4c3c2OC[C@@H]4C)cc1 | 3.13 µg/mL (≈ 8.19 µM)

Next, values leading:

MIC | Compound
0.195 µg/mL (≈ 0.484 µM) | C[C@H]1COc2c(CNc3ccc(Cl)cc3)c(F)cc3c(=O)c(C(=O)O)cn1c23
6.25 µg/mL (≈ 15.5 µM) | C[C@H]1COc2c(CNc3cccc(Cl)c3)c(F)cc3c(=O)c(C(=O)O)cn1c23
0.78 µg/mL (≈ 2.02 µM) | C[C@H]1COc2c(CNc3ccc(F)cc3)c(F)cc3c(=O)c(C(=O)O)cn1c23
0.195 µg/mL (≈ 0.463 µM) | C[C@H]1COc2c(CNc3ccc(F)c(Cl)c3)c(F)cc3c(=O)c(C(=O)O)cn1c23

test system: Staphylococcus aureus; test: Antibacterial activity against Staphylococcus aureus 26003 after 24 hrs by agar dilution method; type: functional

Compound | MIC
C[C@H]1COc2c(CN3CCCCC3)c(F)cc3c(=O)c(C(=O)O)cn1c23 | > 6.25 µg/mL
C[C@H]1COc2c(CN3CCNCC3)c(F)cc3c(=O)c(C(=O)O)cn1c23 | > 6.25 µg/mL
C[C@H]1COc2c(CN3CCN(C)CC3)c(F)cc3c(=O)c(C(=O)O)cn1c23 | > 6.25 µg/mL
C[C@H]1COc2c(CNc3ccccc3)c(F)cc3c(=O)c(C(=O)O)cn1c23 | 1.56 µg/mL (≈ 4.23 µM)
Cc1ccc(NCc2c(F)cc3c(=O)c(C(=O)O)cn4c3c2OC[C@@H]4C)cc1 | 0.78 µg/mL (≈ 2.04 µM)

Next, values leading:

MIC | Compound
0.098 µg/mL (≈ 0.243 µM) | C[C@H]1COc2c(CNc3ccc(Cl)cc3)c(F)cc3c(=O)c(C(=O)O)cn1c23
1.56 µg/mL (≈ 3.87 µM) | C[C@H]1COc2c(CNc3cccc(Cl)c3)c(F)cc3c(=O)c(C(=O)O)cn1c23
0.78 µg/mL (≈ 2.02 µM) | C[C@H]1COc2c(CNc3ccc(F)cc3)c(F)cc3c(=O)c(C(=O)O)cn1c23
0.098 µg/mL (≈ 0.233 µM) | C[C@H]1COc2c(CNc3ccc(F)c(Cl)c3)c(F)cc3c(=O)c(C(=O)O)cn1c23
